Test results taken from patent US12435044B2, “Pyridazinone herbicides and pyridazinone intermediates used to prepare a herbicide” (FMC Corporation, priority 2018, dated 2025).

Experiments:
Format in all cases: in vivo
[1] = system: waterhemp (common waterhemp, Amaranthus rudis); test: Test C pre-/postemergence greenhouse test; details: scale 0 to 100
Outline: (§1)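 Formulation: non-phytotoxic solvent mixture including surfactant. Preemergence on seeds in silt loam; postemergence on plants 2 to 18 cm tall in peat-based potting medium. Controls held alongside; visual evaluation at 13 to 21 d, 0 = no effect, 100 = complete control.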

[2] = system: foxtail, giant (Setaria faberii); test: Test C pre-/postemergence greenhouse test; details: scale 0 to 100
Outline: as §1

oat, wild (Avena fatua) = test: Test C pre-/postemergence greenhouse test; details: scale 0 to 100
Outline: as §1

[3] = system: wheat, winter (winter wheat, Triticum aestivum); test: Test C pre-/postemergence greenhouse test; details: scale 0 to 100
Outline: as §1

[4] = system: velvetleaf (Abutilon theophrasti); test: Test C pre-/postemergence greenhouse test; details: Preemergence, scale 0 to 100
Outline: as §1

[5] = system: pigweed, palmer (Amaranthus palmeri); test: Test C pre-/postemergence greenhouse test; details: scale 0 to 100
Outline: as §1

[6] = system: surinam grass (Brachiaria decumbens); test: Test C pre-/postemergence greenhouse test; details: Preemergence, scale 0 to 100
Outline: as §1

kochia (Kochia scoparia) = test: Test C pre-/postemergence greenhouse test; details: scale 0 to 100
Outline: as §1

[7] = system: ryegrass, Italian (Lolium multiflorum); test: Test C pre-/postemergence greenhouse test; details: Preemergence, scale 0 to 100
Outline: as §1

[8] = system: nutsedge, yellow (Cyperus esculentus); test: Test C pre-/postemergence greenhouse test; details: Preemergence, scale 0 to 100
Outline: as §1

[9] = system: field poppy (Papaver rhoeas); test: Test C postemergence greenhouse test; details: scale 0 to 100
Source text: Seeds of plant species selected from blackgrass (Alopecurus myosuroides), ryegrass, Italian (Lolium multiflorum), wheat, winter (winter wheat, Triticum aestivum), galium (catchweed bedstraw, Galium aparine), corn (Zea mays), crabgrass, large (Digitaria sanguinalis), foxtail, giant (Setaria faberii), johnsongrass (Sorghum halepense), lambsquarters (Chenopodium album), morningglory (Ipomoea coccinea), nutsedge, yellow (Cyperus esculentus), pigweed (Amaranthus retroflexus), ragweed (common ragweed, Ambrosia elatior), soybean (Glycine max), barnyardgrass (Echinochloa crus-galli), oilseed rape (Brassica napus), waterhemp (common waterhemp, Amaranthus rudis), pigweed, palmer (Amaranthus palmeri), kochia (Kochia scoparia), oat, wild (Avena fatua), surinam grass (Brachiaria decumbens), windgrass (Apera spica-venti), poinsettia, wild (Euphorbia heterophylla) and velvetleaf (Abutilon theophrasti) were planted into a silt loam soil and treated preemergence with test chemicals formulated in a non-phytotoxic solvent mixture which included a surfactant.
At the same time, plants selected from these crop and weed species and also chickweed (common chickweed, Stellaria media), buckwheat, wild (Polygonum convolvulus), mustard, wild (Sinapis arvensis), field poppy (Papaver rhoeas), field violet (Viola arvensis), nightshade (eastern black nightshade, Solanum ptycanthum), speedwell (bird's-eye speedwell, Veronica persica), horseweed (Conyza canadensis), cutleaf geranium (Geranium dissectum), and Canada thistle (Cirsium arvense) were planted in pots containing Redi-Earth® planting medium (Scotts Company, 14111 Scottslawn Road, Marysville, Ohio 43041) comprising spaghnum peat moss, vermiculite, wetting agent and starter nutrients and treated with postemergence applications of test chemicals formulated in the same manner. Plants ranged in height from 2 to 18 cm (1- to 4-leaf stage) for postemergence treatments. Treated plants and controls were maintained in a greenhouse for 13 to 21 d, after which time all species were compared to controls and visually evaluated. Plant response ratings, summarized in Table C-1 (postemergence) and C-2 (preemergence), are based on a scale of 0 to 100 where 0 is no effect and 100 is complete control. A dash (-) response means no test result.

Cc1ccc2ccc(F)cc2c1-c1c(O)c(Cl)nn(C)c1=O [Cpd. No. 21]
Plant response rating, Waterhemp ([1]; Postemergence, 16 g ai/ha): 80 | Plant response rating, Waterhemp ([1]; Postemergence, 31 g ai/ha): 85 | Plant response rating, Waterhemp ([1]; Postemergence, 62 g ai/ha): 98 | Plant response rating, Waterhemp ([1]; Postemergence, 125 g ai/ha): 90 | Plant response rating, Waterhemp ([1]; Preemergence, 31 g ai/ha): 85 | Plant response rating, Waterhemp ([1]; Preemergence, 61 g ai/ha): 80 | Plant response rating, Waterhemp ([1]; Preemergence, 62 g ai/ha): 95 | Plant response rating, Waterhemp ([1]; Preemergence, 125 g ai/ha): 98 | Plant response rating, Foxtail, Giant ([2]; Postemergence, 16 g ai/ha): 70 | Plant response rating, Foxtail, Giant ([2]; Postemergence, 31 g ai/ha): 85 | Plant response rating, Foxtail, Giant ([2]; Postemergence, 62 g ai/ha): 90 | Plant response rating, Foxtail, Giant ([2]; Postemergence, 125 g ai/ha): 93 | Plant response rating, Foxtail, Giant ([2]; Preemergence, 31 g ai/ha): 85 | Plant response rating, Foxtail, Giant ([2]; Preemergence, 61 g ai/ha): 10 | Plant response rating, Foxtail, Giant ([2]; Preemergence, 62 g ai/ha): 98 | Plant response rating, Foxtail, Giant ([2]; Preemergence, 125 g ai/ha): 100 | Plant response rating, Oat, Wild (oat, wild (Avena fatua); Postemergence, 16 g ai/ha): 95 | Plant response rating, Oat, Wild (oat, wild (Avena fatua); Postemergence, 31 g ai/ha): 98 | Plant response rating, Oat, Wild (oat, wild (Avena fatua); Postemergence, 62 g ai/ha): 99 | Plant response rating, Oat, Wild (oat, wild (Avena fatua); Postemergence, 125 g ai/ha): 100 | Plant response rating, Oat, Wild (oat, wild (Avena fatua); Preemergence, 31 g ai/ha): 70 | Plant response rating, Oat, Wild (oat, wild (Avena fatua); Preemergence, 61 g ai/ha): 45 | Plant response rating, Oat, Wild (oat, wild (Avena fatua); Preemergence, 62 g ai/ha): 85 | Plant response rating, Oat, Wild (oat, wild (Avena fatua); Preemergence, 125 g ai/ha): 85 | Plant response rating, Wheat ([3]; Postemergence, 16 g ai/ha): 45 | Plant response rating, Wheat ([3]; Postemergence, 31 g ai/ha): 65 | Plant response rating, Wheat ([3]; Postemergence, 62 g ai/ha): 78 | Plant response rating, Wheat ([3]; Postemergence, 125 g ai/ha): 80 | Plant response rating, Wheat ([3]; Preemergence, 31 g ai/ha): 90 | Plant response rating, Wheat ([3]; Preemergence, 61 g ai/ha): 5 | Plant response rating, Wheat ([3]; Preemergence, 62 g ai/ha): 90 | Plant response rating, Wheat ([3]; Preemergence, 125 g ai/ha): 90 | Plant response rating, Velvetleaf ([4]; 31 g ai/ha): 75 | Plant response rating, Velvetleaf ([4]; 61 g ai/ha): 40 | Plant response rating, Velvetleaf ([4]; 62 g ai/ha): 75 | Plant response rating, Velvetleaf ([4]; 125 g ai/ha): 95 | Plant response rating, Pigweed, Palmer ([5]; Postemergence, 16 g ai/ha): 30 | Plant response rating, Pigweed, Palmer ([5]; Postemergence, 31 g ai/ha): 30 | Plant response rating, Pigweed, Palmer ([5]; Postemergence, 62 g ai/ha): 30 | Plant response rating, Pigweed, Palmer ([5]; Postemergence, 125 g ai/ha): 95 | Plant response rating, Pigweed, Palmer ([5]; Preemergence, 31 g ai/ha): 55 | Plant response rating, Pigweed, Palmer ([5]; Preemergence, 61 g ai/ha): 20 | Plant response rating, Pigweed, Palmer ([5]; Preemergence, 62 g ai/ha): 70 | Plant response rating, Pigweed, Palmer ([5]; Preemergence, 125 g ai/ha): 90 | Plant response rating, Surinam Grass ([6]; 31 g ai/ha): 100 | Plant response rating, Surinam Grass ([6]; 61 g ai/ha): 80 | Plant response rating, Surinam Grass ([6]; 62 g ai/ha): 100 | Plant response rating, Surinam Grass ([6]; 125 g ai/ha): 100 | Plant response rating, Kochia (kochia (Kochia scoparia); Postemergence, 16 g ai/ha): 13 | Plant response rating, Kochia (kochia (Kochia scoparia); Postemergence, 31 g ai/ha): 18 | Plant response rating, Kochia (kochia (Kochia scoparia); Postemergence, 62 g ai/ha): 28 | Plant response rating, Kochia (kochia (Kochia scoparia); Postemergence, 125 g ai/ha): 28 | Plant response rating, Kochia (kochia (Kochia scoparia); Preemergence, 31 g ai/ha): 20 | Plant response rating, Kochia (kochia (Kochia scoparia); Preemergence, 61 g ai/ha): 5 | Plant response rating, Kochia (kochia (Kochia scoparia); Preemergence, 62 g ai/ha): 70 | Plant response rating, Kochia (kochia (Kochia scoparia); Preemergence, 125 g ai/ha): 90 | Plant response rating, Ryegrass, Italian ([7]; 31 g ai/ha): 98 | Plant response rating, Ryegrass, Italian ([7]; 61 g ai/ha): 50 | Plant response rating, Ryegrass, Italian ([7]; 62 g ai/ha): 98 | Plant response rating, Ryegrass, Italian ([7]; 125 g ai/ha): 100 | Plant response rating, Nutsedge, Yellow ([8]; 31 g ai/ha): 60 | Plant response rating, Nutsedge, Yellow ([8]; 61 g ai/ha): 30 | Plant response rating, Nutsedge, Yellow ([8]; 62 g ai/ha): 85 | Plant response rating, Nutsedge, Yellow ([8]; 125 g ai/ha): 95 | Plant response rating, Field Poppy ([9]; 16 g ai/ha): 60 | Plant response rating, Field Poppy ([9]; 31 g ai/ha): 70 | Plant response rating, Field Poppy ([9]; 62 g ai/ha): 75 | Plant response rating, Field Poppy ([9]; 125 g ai/ha): 98
